Laboratory results from patent US12331051B2 (priority 2021, dated 2025).

Experiments:
Assay in all cases: Radioligand binding, cell membrane homogenates
[1] = target: T1, Serotonin 1B receptor (5-HT1BR) (Homo sapiens, UniProt P28222)
T1 construct: expressed in transfected cells; host or cells: HEK-293
Method: (§1) Neuro-receptor binding and functional effects of the “E559 polymorph” was examined by analyzing binding affinity [Ki (nM)], functional agonist activity [EC50 (nM)], and functional antagonist activity [IC50 (nM)] against a panel of key receptors in neurophysiological disorders. Binding and functional assays were performed at “E559 polymorph” concentrations of 0.0003, 0.003, 0.01, 0.03, 0.1, 0.3, 1, and 10 μM. In binding assays, cell membrane homogenates, expressing each receptor target, were incubated with the corresponding radio-ligand in absence or presence of several concentration of the “E559 polymorph” compound. The measurement of binding affinity of the “E559 polymorph” is represented in TABLE XIII by Ki (nM) which was calculated as percent inhibition of the binding of a radioactively labeled reference ligand at each receptor. In functional assays the HEK-293 cells expressing each receptor target were suspended in buffer and distribute in microplates and incubated for 30 minutes at room temperature or 37° C. in the presence of buffer alone (basal control), the reference agonist or antagonist, or the “E559 polymorph. Following incubation, the cells were lysed and the appropriate fluorescent probe (Ca2+ flux, cAMP, or IP1) were added for 60 minutes to measure the fluorescence transfer at the appropriate wavelength using a microplate reader. The cellular agonist effect (EC50) was calculated as a percent of control response to a known reference agonist and the cellular antagonist effect (IC50) was calculated as a percent inhibition of control reference agonist response for each receptor.

[2] = target: T2, Serotonin 2B receptor (5-HT2BR) (Homo sapiens, UniProt P41595)
T2 construct: expressed in transfected cells; host or cells: HEK-293
Method: as §1

[3] = target: T3, 5-HT2A receptor (5-HT2AR) (Homo sapiens, UniProt P28223)
T3 construct: expressed in transfected cells; host or cells: HEK-293
Method: as §1

[4] = target: T4, Serotonin 2C receptor (5-HT2CR) (Homo sapiens, UniProt P28335)
T4 construct: expressed in transfected cells; host or cells: HEK-293
T4 sequence (P28335 33-458): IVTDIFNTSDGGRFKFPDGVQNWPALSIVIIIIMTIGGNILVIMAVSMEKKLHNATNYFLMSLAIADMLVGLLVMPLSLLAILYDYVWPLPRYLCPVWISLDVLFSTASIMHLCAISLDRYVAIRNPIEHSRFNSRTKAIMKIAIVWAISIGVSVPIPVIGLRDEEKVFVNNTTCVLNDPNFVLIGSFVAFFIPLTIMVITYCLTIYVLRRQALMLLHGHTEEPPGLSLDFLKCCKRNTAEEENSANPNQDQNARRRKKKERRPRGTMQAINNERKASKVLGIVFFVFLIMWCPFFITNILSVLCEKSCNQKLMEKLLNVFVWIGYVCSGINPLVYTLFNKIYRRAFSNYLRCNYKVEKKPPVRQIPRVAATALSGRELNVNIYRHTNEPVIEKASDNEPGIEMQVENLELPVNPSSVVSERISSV
Method: as §1

[5] = target: T5, Beta 1 adrenergic receptor (Homo sapiens, UniProt P08588)
T5 construct: expressed in transfected cells; host or cells: HEK-293
Method: as §1

[6] = target: T6, Beta 2 adrenergic receptor (Homo sapiens, UniProt P07550)
T6 construct: expressed in transfected cells; host or cells: HEK-293
Method: as §1

[7] = target: T7, Serotonin 7 receptor (5-HT7R) (Homo sapiens, UniProt P34969)
T7 construct: expressed in transfected cells; host or cells: HEK-293
Method: as §1

[8] = target: T8, Serotonin 1A receptor (5-HT1AR) (Homo sapiens, UniProt P08908)
T8 construct: expressed in transfected cells; host or cells: HEK-293
T8 sequence (P08908 1-422): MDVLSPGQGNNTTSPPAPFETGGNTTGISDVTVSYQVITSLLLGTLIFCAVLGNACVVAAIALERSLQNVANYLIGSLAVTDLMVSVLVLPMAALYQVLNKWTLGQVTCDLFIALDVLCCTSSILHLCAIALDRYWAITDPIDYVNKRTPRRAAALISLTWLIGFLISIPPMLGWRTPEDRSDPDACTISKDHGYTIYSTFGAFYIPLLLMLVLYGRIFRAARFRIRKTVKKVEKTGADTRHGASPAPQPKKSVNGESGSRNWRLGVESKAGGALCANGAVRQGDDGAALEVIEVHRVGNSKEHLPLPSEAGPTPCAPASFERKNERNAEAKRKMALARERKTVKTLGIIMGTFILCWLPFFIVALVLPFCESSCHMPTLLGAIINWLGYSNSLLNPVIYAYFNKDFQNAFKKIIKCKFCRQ
Method: as §1

[9] = target: T9, Alpha 2C adrenergic receptor (Homo sapiens, UniProt P18825)
T9 construct: expressed in transfected cells; host or cells: HEK-293
T9 sequence (P18825 1-462): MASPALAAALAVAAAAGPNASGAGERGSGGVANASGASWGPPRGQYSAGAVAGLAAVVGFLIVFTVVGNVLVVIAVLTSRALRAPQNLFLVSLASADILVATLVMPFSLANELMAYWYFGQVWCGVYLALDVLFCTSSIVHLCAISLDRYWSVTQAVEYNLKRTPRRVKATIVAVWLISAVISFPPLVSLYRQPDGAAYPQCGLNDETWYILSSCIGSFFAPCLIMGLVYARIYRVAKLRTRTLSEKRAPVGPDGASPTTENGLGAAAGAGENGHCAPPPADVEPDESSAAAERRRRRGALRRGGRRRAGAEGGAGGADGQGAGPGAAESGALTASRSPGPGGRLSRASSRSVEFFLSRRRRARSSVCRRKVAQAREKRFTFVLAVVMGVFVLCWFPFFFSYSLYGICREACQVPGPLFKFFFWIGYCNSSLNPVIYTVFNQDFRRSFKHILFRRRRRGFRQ
Method: as §1

[10] = target: T10, Alpha 2A adrenergic receptor (Homo sapiens, UniProt P08913)
T10 construct: expressed in transfected cells; host or cells: HEK-293
T10 sequence (P08913 1-465): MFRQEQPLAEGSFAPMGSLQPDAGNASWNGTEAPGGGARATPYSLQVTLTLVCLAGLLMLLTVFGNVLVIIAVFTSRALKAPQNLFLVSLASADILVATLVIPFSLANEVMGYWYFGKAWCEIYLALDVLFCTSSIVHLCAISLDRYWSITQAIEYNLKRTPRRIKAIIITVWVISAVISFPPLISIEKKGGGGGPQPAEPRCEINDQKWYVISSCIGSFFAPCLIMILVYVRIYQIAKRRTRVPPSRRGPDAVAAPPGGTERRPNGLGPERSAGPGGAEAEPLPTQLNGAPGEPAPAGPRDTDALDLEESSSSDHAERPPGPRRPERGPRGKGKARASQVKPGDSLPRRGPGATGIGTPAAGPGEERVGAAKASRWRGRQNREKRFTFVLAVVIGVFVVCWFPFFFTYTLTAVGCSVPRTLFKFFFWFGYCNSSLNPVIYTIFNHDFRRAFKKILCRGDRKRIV
Method: as §1

T1 sequence (P28222 whole entry): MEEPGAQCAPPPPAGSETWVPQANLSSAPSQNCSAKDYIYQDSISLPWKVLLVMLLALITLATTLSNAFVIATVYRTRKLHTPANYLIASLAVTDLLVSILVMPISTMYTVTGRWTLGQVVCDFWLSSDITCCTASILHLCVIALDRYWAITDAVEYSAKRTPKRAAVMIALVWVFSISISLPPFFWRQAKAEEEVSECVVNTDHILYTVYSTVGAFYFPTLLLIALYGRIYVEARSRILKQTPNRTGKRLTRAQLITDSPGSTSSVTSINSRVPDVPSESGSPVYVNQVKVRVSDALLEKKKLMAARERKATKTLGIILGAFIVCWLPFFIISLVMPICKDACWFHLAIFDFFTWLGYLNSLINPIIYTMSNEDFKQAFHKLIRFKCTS
T5 sequence (P08588 whole entry): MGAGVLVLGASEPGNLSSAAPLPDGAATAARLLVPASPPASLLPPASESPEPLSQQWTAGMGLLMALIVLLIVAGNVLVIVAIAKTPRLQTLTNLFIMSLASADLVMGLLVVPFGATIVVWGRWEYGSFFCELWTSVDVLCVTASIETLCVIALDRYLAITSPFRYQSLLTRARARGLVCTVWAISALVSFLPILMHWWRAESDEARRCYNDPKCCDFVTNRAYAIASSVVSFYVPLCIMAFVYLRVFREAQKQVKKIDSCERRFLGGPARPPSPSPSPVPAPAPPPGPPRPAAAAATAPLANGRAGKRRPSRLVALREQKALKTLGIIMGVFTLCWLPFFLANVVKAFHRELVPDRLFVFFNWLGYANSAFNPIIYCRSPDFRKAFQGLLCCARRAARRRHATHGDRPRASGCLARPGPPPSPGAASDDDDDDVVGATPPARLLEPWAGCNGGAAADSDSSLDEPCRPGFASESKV
T7 sequence (P34969 whole entry): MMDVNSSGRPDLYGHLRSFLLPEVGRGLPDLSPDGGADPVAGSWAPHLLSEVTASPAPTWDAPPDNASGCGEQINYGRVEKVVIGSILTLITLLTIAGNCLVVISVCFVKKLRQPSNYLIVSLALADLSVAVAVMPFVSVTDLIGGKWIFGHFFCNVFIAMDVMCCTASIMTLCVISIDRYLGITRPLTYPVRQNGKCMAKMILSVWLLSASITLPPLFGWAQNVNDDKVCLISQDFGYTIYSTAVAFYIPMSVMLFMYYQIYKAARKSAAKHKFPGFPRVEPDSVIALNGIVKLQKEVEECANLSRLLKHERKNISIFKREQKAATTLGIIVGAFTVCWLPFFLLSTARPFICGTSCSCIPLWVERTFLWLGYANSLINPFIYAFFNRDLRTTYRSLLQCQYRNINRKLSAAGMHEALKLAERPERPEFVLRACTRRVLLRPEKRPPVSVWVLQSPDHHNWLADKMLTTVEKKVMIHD
T3 sequence (P28223 whole entry): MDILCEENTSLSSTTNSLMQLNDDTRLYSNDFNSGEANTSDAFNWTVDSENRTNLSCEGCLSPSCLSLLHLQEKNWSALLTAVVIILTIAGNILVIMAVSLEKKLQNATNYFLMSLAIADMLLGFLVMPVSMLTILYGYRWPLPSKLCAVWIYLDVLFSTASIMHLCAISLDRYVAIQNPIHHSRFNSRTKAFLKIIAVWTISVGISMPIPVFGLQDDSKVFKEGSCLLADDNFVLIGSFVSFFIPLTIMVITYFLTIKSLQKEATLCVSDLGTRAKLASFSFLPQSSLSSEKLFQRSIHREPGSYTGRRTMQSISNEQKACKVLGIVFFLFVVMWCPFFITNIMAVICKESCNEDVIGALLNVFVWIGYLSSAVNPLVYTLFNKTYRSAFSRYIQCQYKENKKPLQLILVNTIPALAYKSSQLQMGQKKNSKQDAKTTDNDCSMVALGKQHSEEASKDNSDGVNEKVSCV
T2 sequence (P41595 whole entry): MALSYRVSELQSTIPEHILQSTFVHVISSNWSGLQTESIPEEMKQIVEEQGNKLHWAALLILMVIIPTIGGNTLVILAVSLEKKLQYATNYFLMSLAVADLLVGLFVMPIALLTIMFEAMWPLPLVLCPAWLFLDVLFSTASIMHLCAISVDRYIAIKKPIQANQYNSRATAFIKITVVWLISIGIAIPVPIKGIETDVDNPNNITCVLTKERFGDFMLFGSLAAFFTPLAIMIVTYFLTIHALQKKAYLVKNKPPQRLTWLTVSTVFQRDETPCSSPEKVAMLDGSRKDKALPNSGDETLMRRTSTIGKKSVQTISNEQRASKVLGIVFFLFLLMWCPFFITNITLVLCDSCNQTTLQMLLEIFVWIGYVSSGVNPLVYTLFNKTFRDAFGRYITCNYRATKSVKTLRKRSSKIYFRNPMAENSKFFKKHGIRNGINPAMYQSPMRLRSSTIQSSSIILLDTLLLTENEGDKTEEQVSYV
T6 sequence (P07550 whole entry): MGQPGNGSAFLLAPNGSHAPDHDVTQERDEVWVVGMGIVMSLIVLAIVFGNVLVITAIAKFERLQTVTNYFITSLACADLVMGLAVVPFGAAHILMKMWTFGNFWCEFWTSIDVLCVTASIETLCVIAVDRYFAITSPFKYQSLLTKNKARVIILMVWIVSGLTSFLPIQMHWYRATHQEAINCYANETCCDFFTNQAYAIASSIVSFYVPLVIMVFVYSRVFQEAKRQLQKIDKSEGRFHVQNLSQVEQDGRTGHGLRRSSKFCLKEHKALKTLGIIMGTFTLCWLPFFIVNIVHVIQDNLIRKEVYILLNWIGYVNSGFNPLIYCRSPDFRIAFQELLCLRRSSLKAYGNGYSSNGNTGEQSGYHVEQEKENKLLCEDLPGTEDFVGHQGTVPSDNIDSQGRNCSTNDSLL

## CCN(CC)C(=O)[C@@H]1C=C2c3cccc4[nH]c(Br)c(c34)C[C@H]2N(C)C1 [E559, (5R, 8R)-2-Bromo-9,10-didehydro-N,N-diethyl-6-methylergoline-8-carboxamide hemi-D-tartrate]
[1]
  Ki: 0.077 µM
[2]
  Ki: 0.007 µM
[3]
  Ki: 0.0022 µM
[4]
  Ki: 0.019 µM
[5]
  Ki: 0.109 µM
[6]
  Ki: 0.088 µM
[7]
  Ki: 0.00381 µM
[8]
  Ki: 0.0093 µM
[9]
  Ki: 0.027 µM
[10]
  Ki: 0.0103 µM
